Converted amounts (≈) assume the structure as drawn.

Data set [1] has as its system Staphylococcus aureus. The experiment in a line: Antimicrobial activity against Staphylococcus aureus assessed as inhibition of microbial growth incubated for 24 hrs by well dilution assay based UV-Vis spectroscopy. It is filed as functional.
Data set [2] concerns Escherichia coli. The experiment in a line: Antimicrobial activity against Escherichia coli assessed as inhibition of microbial growth incubated for 24 hrs by well dilution assay based UV-Vis spectroscopy. The class given is functional.
The subject of data set [3] is Klebsiella pneumoniae. The experiment in a line: Antimicrobial activity against Klebsiella pneumoniae assessed as inhibition of microbial growth incubated for 24 hrs by well dilution assay based UV-Vis spectroscopy. The class given is functional.
The subject of data set [4] is Proteus vulgaris. Put plainly: Antimicrobial activity against Proteus vulgaris assessed as inhibition of microbial growth incubated for 24 hrs by well dilution assay based UV-Vis spectroscopy. The class given is functional.
Data set [5] has as its system Pseudomonas aeruginosa. Put plainly: Antimicrobial activity against Pseudomonas aeruginosa assessed as inhibition of microbial growth incubated for 24 hrs by well dilution assay based UV-Vis spectroscopy. The class given is functional.
Data set [6] concerns Aspergillus niger. Put plainly: Antimicrobial activity against Aspergillus niger assessed as inhibition of microbial growth incubated for 48 hrs by well dilution assay based UV-Vis spectroscopy. It is filed as functional.
Data set [7] relates to Macrophomina phaseolina. Put plainly: Antimicrobial activity against Macrophomina phaseolina assessed as inhibition of microbial growth incubated for 48 hrs by well dilution assay based UV-Vis spectroscopy. It is filed as functional.
Data set [8] concerns Candida albicans. Put plainly: Antimicrobial activity against Candida albicans assessed as inhibition of microbial growth incubated for 48 hrs by well dilution assay based UV-Vis spectroscopy. The class given is functional.
The subject of data set [9] is Rhizopus stolonifer. The experiment in a line: Antimicrobial activity against Rhizopus stolonifer assessed as inhibition of microbial growth incubated for 48 hrs by well dilution assay based UV-Vis spectroscopy. It is filed as functional.
The subject of data set [10] is Aspergillus flavus. The experiment in a line: Antimicrobial activity against Aspergillus flavus assessed as inhibition of microbial growth incubated for 48 hrs by well dilution assay based UV-Vis spectroscopy. The class given is functional.
Data set [11] deals with Mycobacterium tuberculosis. Put plainly: Antimycobacterial activity against Mycobacterium tuberculosis H37Rv assessed as inhibition of bacterial growth at 1.56 to 100 ug/ml incubated for 6 days by alamar blue dye based broth microdilution assay. It is filed as functional. The note with it: dose 1.56-100 µg/ml; time 6 day; at 1.56 to 100 µg/mL. In general terms: The colour change of resazurin is a common sign of viable cells or microbes.

Data set [12] has as its system Mycobacterium tuberculosis. Put plainly: Antimycobacterial activity against Mycobacterium tuberculosis H37Rv assessed as inhibition of bacterial growth incubated for 6 days by alamar blue dye based broth microdilution assay. The class given is functional. The note with it: time 6 day.
Data set [13] in a line: Antioxidant activity assessed as DPPH radical scavenging activity incubated for 30 mins under dark condition. The class given is functional.
Data set [14] in a line: Toxicity in brine shrimp assessed as lethal dose incubated for 24 hrs. To be noted: artemia salina.
The test system of data set [15] is Bacillus cereus. The experiment in a line: Antibacterial activity against Bacillus cereus assessed as inhibition of bacterial growth incubated for 24 hrs by filter paper disc diffusion assay. It is filed as functional. (In general: Agar diffusion results depend on both activity and mobility in agar.)
The subject of data set [16] is Salmonella typhimurium. The experiment in a line: Antibacterial activity against Salmonella enterica subsp. enterica serovar Typhimurium assessed as inhibition of bacterial growth incubated for 24 hrs by filter paper disc diffusion assay. The class given is functional.
A short description of data set [17]: Antioxidant activity assessed as DPPH radical scavenging activity by spectrophotometric assay. It is filed as functional. For orientation: Loss of DPPH colour is used to gauge radical scavenging.
Data set [18] in a line: Antioxidant activity assessed as DPPH radical scavenging activity incubated for 30 mins under dark condition by spectrophotometric assay. The class given is functional.
Data set [19] in a line: Antioxidant activity assessed as DPPH radical scavenging activity. It is filed as functional.

A word on the MIC: it is the lowest concentration that inhibits growth of the organism. Consider `Cc1c(/N=C/c2ccco2)/c(=N\c2ccccc2)n(-c2ccccc2)n1C`, for which the MIC is 16 µg/mL in data set [1]; 16 µg/mL in [2]; 16 µg/mL in [3]; 16 µg/mL in data set [4]; 16 µg/mL in [5]; 6 µg/mL in data set [6]. The MIC in data set [7], in data set [8], in [9] and in data set [10] was 6 µg/mL in each case.
Regarding `Cc1c(/N=C/c2ccccc2)/c(=N\Nc2nc(-c3ccc(O)cc3O)cs2)n(-c2ccccc2)n1C`, the “inhibition (INH)” value in data set [11] amounted to 90%. The MIC in [12] is reported as 0.648 10^-3micromol/ml.
By IC50 is commonly meant the concentration that gives 50% inhibition. Regarding `Cc1c(/N=C/c2ccccc2)c(=O)n(-c2ccccc2)n1C`, the IC50 in data set [13] is 31.3 µM.
As to `Cc1c(/N=C/c2ccccc2)/c(=N\Nc2nc(-c3ccccc3)cs2)n(-c2ccccc2)n1C`, the “inhibition (INH)” value in data set [11] was 90%.
For `COc1cccc(-c2csc(N/N=c3\c(/N=C/c4ccccc4)c(C)n(C)n3-c3ccccc3)n2)c1`, in [11], the “inhibition (INH)” value is listed as 90%.
Turning to `Cc1c(/N=C/c2ccco2)/c(=N\c2ccc(O)cc2)n(-c2ccccc2)n1C`, the MIC in data set [1] came to 16 µg/mL; in data set [2], 16 µg/mL; in [3], 16 µg/mL; in data set [4] it was 16 µg/mL; in data set [5], 16 µg/mL; in [6], 6 µg/mL. For the same compound, the MIC in data set [7], in data set [8], in data set [9] and in data set [10] was 6 µg/mL in each case.
As to `Cc1c(/N=C/c2ccccc2)/c(=N\Nc2nc(-c3ccc(N(C)C)cc3)cs2)n(-c2ccccc2)n1C`, in data set [11], the “inhibition (INH)” value is 90%.
As a reminder, the LC50 is the concentration that kills 50% of the test population. For `Cc1c(/N=C/c2ccc(Cl)cc2)c(=O)n(-c2ccccc2)n1C`, in [14], the LC50 was 225 ppm.
Turning to `Cc1c(/N=C/c2cccc(F)c2)/c(=N\Nc2nc(-c3ccccc3)cs2)n(-c2ccccc2)n1C`, the “inhibition (INH)” value in data set [11] was found to be 90%.
For `Cc1c(/N=C/c2cccc(Cl)c2)/c(=N\Nc2nc(-c3ccccc3)cs2)n(-c2ccccc2)n1C`, the “inhibition (INH)” value in data set [11] was found to be 90%.
As for `Cc1c(/N=C/c2ccccc2)/c(=N\Nc2nc(-c3ccc([N+](=O)[O-])cc3)cs2)n(-c2ccccc2)n1C`, in data set [11], the “inhibition (INH)” value turned out to be 90%.
Turning to `COc1ccccc1/C=N/c1c(C)n(C)n(-c2ccccc2)c1=O`, the MIC amounted to 12.5 µg/mL (≈ 38.9 µM) in data set [15] and 50 µg/mL (≈ 156 µM) in [16].
Take `Cc1c(/N=C/c2ccco2)/c(=N\c2ccc([N+](=O)[O-])cc2)n(-c2ccccc2)n1C`: the MIC came to 16 µg/mL in data set [1]; 16 µg/mL in [2]; 16 µg/mL in data set [3]; 16 µg/mL in [4]; 16 µg/mL in data set [5]; 6 µg/mL in [6]. In addition, the MIC in data set [7], in data set [8], in data set [9] and in [10] was 6 µg/mL each time.
For the compound `Cc1cc(C(C)(C)C)c(O)c(C(C)(C)C)c1` [BUTYLATED HYDROXYTOLUENE], the values for the IC50 in data set [17], in [18] and in [19] were 31 µg/mL (≈ 141 µM), 32 µg/mL (≈ 145 µM) and 32 µg/mL (≈ 145 µM), respectively.
Consider `Cc1c(/N=C/c2ccccc2Cl)/c(=N\Nc2nc(-c3ccccc3)cs2)n(-c2ccccc2)n1C`, for which the “inhibition (INH)” value in [11] came to 90%.
For `COc1ccccc1/N=N/c1ccc(O)c2ncccc12`, the IC50 in data set [17] was 72 µg/mL (≈ 258 µM).
For the compound `O=C(O)c1cc(O)c(O)c(O)c1` [GALLIC ACID], the LC50 in data set [14] is given as 78 ppm.
The same measure, in the same setting: the value for `Cc1c(/N=C/c2ccc(O)c(O)c2)c(=O)n(-c2ccccc2)n1C` was 481 ppm.
The same measure, in the same setting: the value for `Cc1c(/N=C/c2ccc(O)cc2O)c(=O)n(-c2ccccc2)n1C` was 581 ppm.
In the case of `COc1cc(-c2csc(N/N=c3\c(/N=C/c4ccccc4)c(C)n(C)n3-c3ccccc3)n2)ccc1O`, the “inhibition (INH)” value in data set [11] amounted to 90%.
Same read-out and setting: in the case of `Cc1c(/N=C/c2ccccc2)/c(=N\Nc2nc(-c3ccc(O)c(O)c3)cs2)n(-c2ccccc2)n1C` it was 90%.
On the same count and under the same terms, in the case of `Cc1c(/N=C/c2ccc(Cl)cc2)/c(=N\Nc2nc(-c3ccccc3)cs2)n(-c2ccccc2)n1C` it was 90%.
Still for that read-out and setting: in the case of `Cc1c(/N=C/c2ccc(O)cc2)/c(=N\Nc2nc(-c3ccccc3)cs2)n(-c2ccccc2)n1C` it was 90%.

For the origin of these results see ChEMBL document CHEMBL5226276, “Molecules with versatile biological activities bearing antipyrinyl nucleus as pharmacophore” (Eur J Med Chem, 2020).
